From patent publication US20260034146A1, “NEUROACTIVE 19-ALKOXY-17-S[…], PRODRUGS THEREOF, AND METHODS OF TREATMENT USING SAME” (priority 2012, published 2026)

How the values were obtained:
[1] = biological target: rat α1β2γ2L type GABAA receptors expressed in Xenopus laevis oocytes (Rattus norvegicus (Rat), UniProt P62813+P63138, INS375LLRMFSFK); test: Oocyte electrophysiology: potentiation of chloride currents mediated by 2 μM GABA, and direct gating; assay type: cell-based; conditions: ± SEM; for oocyte electrophysiology, ratio of currents in presence/absence of compound, 0.1 μM: 0.1 μM compound; for oocyte electrophysiology, ratio of currents in presence/absence of compound, 0.1 μM / oocyte electrophysiology, ratio of currents in presence/absence of compound, 1 μM / oocyte electrophysiology, ratio of currents in presence/absence of compound, 10 μM: 2 μM GABA control, N≥4 oocytes; for oocyte electrophysiology, ratio of currents in presence/absence of compound, 1 μM: 1 μM compound; for oocyte electrophysiology, ratio of currents in presence/absence of compound, 10 μM: 10 μM compound; for (gating) 10 μM, ratio of compound only current/2 μM GABA current: direct current gated by 10 μM compound in the absence of GABA, N≥4
Method: The compounds of the present disclosure were evaluated for the ability to potentiate chloride currents mediated by 2 μM GABA at rat α1β2γ2L type GABAA receptors expressed in Xenopus laevis oocytes and the results are shown in Table 2.
The GABA concentration used for the control response was 2 μM. Each compound was evaluated on at least four different oocytes at the concentrations indicated, and the results reported are the ratio of currents measured in the presence/absence of added compound. Gating represents direct current gated by 10 μM compound in the absence of GABA, and this current is reported as the ratio of compound only current/2 μM GABA current. Error limits are calculated as standard error of the mean (N≥4). Methods used are known in the art (see Jiang, X., et al.).

[2] = biological target: picrotoxin binding site on GABAA receptors; test: [35S]-TBPS displacement (inhibition of [35S]-TBPS binding); conditions: duplicate experiments performed in triplicate; ± standard error of the mean
Method: The IC50 values for non-competitive displacers of [^35S]-TBPS from the picrotoxin binding site on GABAA receptors are reported in Table 1.
^aResults presented are from duplicate experiments performed in triplicate. Error limits are calculated as standard error of the mean. Methods used are known in the art (see Jiang, X., et al., Neurosteroid analogues. 9. Conformationally constrained pregnanes: structure-activity studies of 13,24-cyclo-18,21-dinorcholane analogues of the GABA modulatory and anesthetic steroids (3α,5α)- and […]. J. Med. Chem., 46: 5334-48 (2003)—the contents of which are hereby incorporated by reference in their entirety).

[3] = test system: male Sprague Dawley rats; test: Rat loss of righting reflex (LRR), intravenous bolus; assay type: in vivo; conditions: rat dose 15 mg/kg
Method: The plasma pharmacokinetics and a qualitative assessment of sedation were obtained in male Sprague Dawley rats according to the following procedure. Rats were dosed by intravenous bolus dose (60 seconds) via the foot dorsal vein at doses ranging from 5 to 15 mg/kg in an appropriate vehicle. In order to assess sedation, rats were gently restrained by hand to a lateral position for dose administration. […] If the animal was unable to return to an upright position, the time was recorded as the onset of loss of righting reflex (LRR). […] Sluggish or incomplete righting twice consecutively within a 30 second interval qualifies as a loss of righting reflex. After onset of LRR, animals were assessed every 5 minutes in the same manner. Recovery of righting reflex is defined as the ability of a rat to right itself completely within 20 seconds of being placed in dorsal recumbency. The duration of LRR is defined as the time interval between LRR and the return of righting reflex.

[4] = test system: male beagle dogs; test: Dog duration of lateral recumbence, intravenous bolus; assay type: in vivo; conditions: dog dose 5 mg/kg
Method: The plasma pharmacokinetics and a qualitative assessment of sedation were obtained in male beagle dogs according to the following procedure. Dogs were dosed by intravenous bolus dose (60 seconds) via the cephalic vein at 5 mg/kg dose in an appropriate vehicle. In order to assess sedation, dogs were gently restrained for dose administration. If decreased muscle tone, limb weakness, or head drop was observed during dose administration, onset of lateral recumbence was recorded. […] Sluggish or incomplete righting to the sternal position qualifies as lateral recumbence. After onset of lateral recumbence, animals were assessed every 5 minutes in the same manner. The duration of lateral recumbence was recorded as the time interval between onset of lateral recumbence and the return to sternal position.

Compound | oocyte electrophysiology, ratio of currents in presence/absence of compound, 0.1 μM [1] | oocyte electrophysiology, ratio of currents in presence/absence of compound, 1 μM [1] | oocyte electrophysiology, ratio of currents in presence/absence of compound, 10 μM [1] | (gating) 10 μM, ratio of compound only current/2 μM GABA current [1] | IC50 [2] [nM] | Duration of Rat LRR [3] | Duration of Dog Lateral Recumbence [4]
COC[C@]12CC[C@@H](O)C[C@@H]1CC[C@H]1[C@@H]3CC[C@H]([N+](=O)[O-])[C@@]3(C)CC[C@@H]12 [29, MQ-97, (3α,5α,17β)-19-methoxy-17-nitroandrostan-3-ol] | 2.07 ± 0.09 | 15.7 ± 1.45 | 26.6 ± 4.34 | 0.11 ± 0.01 | 37 ± 4 | B (B 10-20 min) | C (C >20 min)
COC[C@]12CC[C@@H](O)C[C@@H]1CC[C@H]1[C@@H]3CC[C@H](OC)[C@@]3(C)CC[C@@H]12 [8, MQ-89, (5α,17β)-17,19-Dimethoxyandrostan-3-ol] | 1.65 ± 0.08 | 7.63 ± 0.77 | 20.9 ± 2.73 | 0.22 ± 0.01 | 56 ± 2 | C (C >20 min) | C (C >20 min)
